Experimental data from paper PMC8161026, “Synthesis and Anticancer Activity Evaluation of 5-[2-Chloro-3-(4-nitrophenyl)-2-propenylidene]-4-thiazolidinones” (Molecules, 2021).

Legend:
SR = details: for TGI: SR (Leukemia), 48 h, SRB
HOP-62 = HOP-62 (Non-Small Cell Lung Cancer), 48 h, SRB
U251 [1] = details: U251 (CNS Cancer), 48 h, SRB
HL-60(TB) = test: cells; details: Homo sapiens, HL-60, 48 h
K-562 = test: cells; details: Homo sapiens, K562, 48 h; for CC50: read-out: LC50
RPMI-8226 = test: cells; details: Homo sapiens, RPMI-8226, 48 h; for CC50: read-out: LC50
A549/ATCC = test: cells; details: Homo sapiens, A549, 48 h; for CC50: read-out: LC50
EKVX = test: cells; details: Homo sapiens, 48 h; for CC50: read-out: LC50
HCT-116 = test: cells; details: Homo sapiens, HCT-116, 48 h; for CC50: read-out: LC50
SW-620 = test: cells; details: Homo sapiens, SW-620, 48 h; for CC50: read-out: LC50
U251 [2] = test: cells; details: Homo sapiens, U-251, 48 h; for CC50: read-out: LC50
786-0 = test: cells; details: Homo sapiens, 786-0, 48 h; for CC50: read-out: LC50
T-47D = test: cells; details: Homo sapiens, T47D, 48 h; for CC50: read-out: LC50
SF-295 = test: NCI DTP 60 cell line screen, SRB; details: for GI50 / CC50: Homo sapiens, SF-295, 48 h; for CC50: read-out: LC50; for TGI: SF-295 (CNS Cancer), 48 h, SRB
SF-539 = test: NCI DTP 60 cell line screen, SRB; details: for GI50 / CC50: Homo sapiens, SF-539, 48 h; for CC50: read-out: LC50; for TGI: SF-539 (CNS Cancer), 48 h, SRB
SNB-19 = test: NCI DTP 60 cell line screen, SRB; details: for GI50 / CC50: Homo sapiens, SNB-19, 48 h; for CC50: read-out: LC50; for TGI: SNB-19 (CNS Cancer), 48 h, SRB
MALME-3M = test: NCI DTP 60 cell line screen, SRB; details: 48 h; for GI50 / CC50: Homo sapiens, Malme-3M; for CC50: read-out: LC50; for TGI: MALME-3M (Melanoma), SRB
SK-MEL-5 = test: NCI DTP 60 cell line screen, SRB; details: for GI50 / CC50: Homo sapiens, SK-MEL-5, 48 h; for CC50: read-out: LC50; for TGI: SK-MEL-5 (Melanoma), 48 h, SRB
IGROV1 = test: NCI DTP 60 cell line screen, SRB; details: for GI50 / CC50: Homo sapiens, IGROV-1, 48 h; for CC50: read-out: LC50; for TGI: IGROV1 (Ovarian Cancer), 48 h, SRB
ACHN = test: NCI DTP 60 cell line screen, SRB; details: 48 h; for TGI: ACHN (Renal Cancer), SRB; for GI50 / CC50: Homo sapiens, ACHN; for CC50: read-out: LC50
CAKI-1 = test: NCI DTP 60 cell line screen, SRB; details: for TGI: CAKI-1 (Renal Cancer), 48 h, SRB; for GI50 / CC50: Homo sapiens, CAKI-1, 48 h; for CC50: read-out: LC50
NCI/ADR-Res = test: NCI DTP 60 cell line screen, SRB; details: 48 h
MDA-MB-231/ATCC = test: NCI DTP 60 cell line screen, SRB; details: for GI50 / CC50: Homo sapiens, MDA-MB-231, 48 h; for CC50: read-out: LC50; for TGI: MDA-MB-231/ATCC (Breast Cancer), 48 h, SRB
BT-549 = test: NCI DTP 60 cell line screen, SRB; details: for TGI: BT-549 (Breast Cancer), 48 h, SRB; for GI50 / CC50: Homo sapiens, BT-549, 48 h; for CC50: read-out: LC50
SNB-75 = test: cells; details: Homo sapiens, SNB-75, 48 h
HOP-92 = test: NCI DTP 60 cell line screen, SRB
OVCAR-4 = test: NCI DTP 60 cell line screen, SRB

`O=C1/C(=C/C(Cl)=C/c2ccc([N+](=O)[O-])cc2)SC(=S)N1/N=C\C(Cl)=C\c1ccc([N+](=O)[O-])cc1` [Compound 2c, 5-[(Z,2Z)-2-Chloro-3-(4-nitrophenyl)-2-propenylidene]-3-[(Z,2Z)-2-chloro-3-(4-nitrophenyl)-2-propenylideneamino]-2-thioxo-4-thiazolidinone] showed a TGI (SR) of 12.0 µM, a TGI (HOP-62) of 39.7 µM and a TGI (U251 [1]) of 24.5 µM. The GI50 (HL-60(TB)) was 5.32 µM, the CC50 (HL-60(TB); read-out: LC50) was 87.2 µM and the GI50 (K-562) was 3.98 µM. The CC50 (K-562) was > 100 µM, the GI50 (RPMI-8226) was 2.38 µM and the CC50 (RPMI-8226) was > 100 µM. The GI50 (A549/ATCC) was 18.9 µM, the CC50 (A549/ATCC) was 96.1 µM and the GI50 (EKVX) was 23.7 µM. For the same compound, the CC50 (EKVX) was 96.1 µM, the GI50 (HCT-116) was 2.73 µM and the CC50 (HCT-116) was 23.3 µM. For the same compound, the GI50 (SW-620) was 7.24 µM, the CC50 (SW-620) was > 100 µM and the GI50 (U251 [2]) was 8.03 µM. It also gave a CC50 (U251 [2]) of 65.8 µM, a GI50 (786-0) of 12.1 µM and a CC50 (786-0) of 77.8 µM. For the same compound, the GI50 (T-47D) was 24.5 µM, the CC50 (T-47D) was > 100 µM and the GI50 (SF-295) was 18 µM. For the same compound, the CC50 (SF-295) was 77.1 µM, the TGI (SF-295) was 37.3 µM and the GI50 (SF-539) was 25.9 µM. The CC50 (SF-539) was > 100 µM, the TGI (SF-539) was 57.4 µM and the GI50 (SNB-19) was 48.3 µM. For the same compound, the CC50 (SNB-19) was > 100 µM, the TGI (SNB-19) was > 100 µM and the GI50 (MALME-3M) was 25 µM. For the same compound, the CC50 (MALME-3M) was > 100 µM, the TGI (MALME-3M) was 60.4 µM and the GI50 (SK-MEL-5) was 19.4 µM. The CC50 (SK-MEL-5) was 75.6 µM, the TGI (SK-MEL-5) was 38.3 µM and the GI50 (IGROV1) was 13.3 µM. It also gave a CC50 (IGROV1) of 58.9 µM, a TGI (IGROV1) of 28.0 µM and a TGI (ACHN) of 29.7 µM. It also gave a GI50 (ACHN) of 15.6 µM, a CC50 (ACHN) of 56.4 µM and a TGI (CAKI-1) of 11.2 µM. For the same compound, the GI50 (CAKI-1) was 3.11 µM, the CC50 (CAKI-1) was > 100 µM and the GI50 (NCI/ADR-Res; Homo sapiens, NCI/ADR-RES) was 6.55 µM. For the same compound, the CC50 (NCI/ADR-Res; Homo sapiens, NCI/ADR-RES, read-out: LC50) was 61.7 µM, the TGI (NCI/ADR-Res; NCI/ADR-Res (Breast Cancer), SRB) was 20.8 µM and the GI50 (MDA-MB-231/ATCC) was 10 µM. The CC50 (MDA-MB-231/ATCC) was > 100 µM, the TGI (MDA-MB-231/ATCC) was 35.4 µM and the TGI (BT-549) was 76.0 µM. The GI50 (BT-549) was 27.3 µM and the CC50 (BT-549) was > 100 µM.
In the case of `O=C(O)C(Cc1ccccc1)N1C(=O)/C(=C/C(Cl)=C/c2ccc([N+](=O)[O-])cc2)SC1=S` (centres unmarked) [Compound 2j, 2-{5-[(Z,2Z)-2-Chloro-3-(4-nitrophenyl)-2-propenylidene]-4-oxo-2-thioxothiazolidin-3-yl}-3-phenylpropanoic acid], the “TI (Therapeutic Index)” value (SR; GI50 (normal blood lymphocyte)/GI50 (SR)) is reported as 19.99, the TGI (SR) is reported as > 100 µM and the TGI (HOP-62) is reported as 6.75 µM. The TGI (U251 [1]) was 3.52 µM, the GI50 (K-562) was 3.01 µM and the CC50 (K-562) was > 100 µM. The GI50 (RPMI-8226) was 3.22 µM, the CC50 (RPMI-8226) was > 100 µM and the GI50 (A549/ATCC) was 3.46 µM. The CC50 (A549/ATCC) was > 100 µM, the GI50 (EKVX) was 2.59 µM and the CC50 (EKVX) was > 100 µM. For the same compound, the GI50 (HCT-116) was 2.01 µM, the CC50 (HCT-116) was 56.7 µM and the GI50 (SW-620) was 2.1 µM. The CC50 (SW-620) was > 100 µM, the GI50 (SNB-75) was 1.96 µM and the CC50 (SNB-75; read-out: LC50) was > 100 µM. The GI50 (U251 [2]) was 1.72 µM, the CC50 (U251 [2]) was 7.21 µM and the GI50 (786-0) was 2.1 µM. The CC50 (786-0) was > 100 µM, the GI50 (T-47D) was 1.5 µM and the CC50 (T-47D) was > 100 µM. The TGI (HOP-92; HOP-92 (Non-Small Cell Lung Cancer), 48 h, SRB) was 5.71 µM, the GI50 (HOP-92; Homo sapiens, HOP-92, 48 h) was 2.36 µM and the CC50 (HOP-92; Homo sapiens, HOP-92, 48 h, read-out: LC50) was > 100 µM. The GI50 (SF-295) was 2.59 µM, the CC50 (SF-295) was > 100 µM and the TGI (SF-295) was 7.85 µM. For the same compound, the GI50 (SF-539) was 2.74 µM, the CC50 (SF-539) was > 100 µM and the TGI (SF-539) was > 100 µM. For the same compound, the GI50 (SNB-19) was 1.85 µM, the CC50 (SNB-19) was > 100 µM and the TGI (SNB-19) was > 100 µM. The GI50 (MALME-3M) was 2.13 µM, the CC50 (MALME-3M) was > 100 µM and the TGI (MALME-3M) was 4.82 µM. It also gave a GI50 (SK-MEL-5) of 1.68 µM, a CC50 (SK-MEL-5) of 5.6 µM and a TGI (SK-MEL-5) of 3.06 µM. For the same compound, the GI50 (IGROV1) was 2.99 µM, the CC50 (IGROV1) was > 100 µM and the TGI (IGROV1) was > 100 µM. For the same compound, the GI50 (OVCAR-4; Homo sapiens, OVCAR-4, 48 h) was 3.21 µM, the CC50 (OVCAR-4; Homo sapiens, OVCAR-4, 48 h, read-out: LC50) was > 100 µM and the TGI (OVCAR-4; OVCAR-4 (Ovarian Cancer), 48 h, SRB) was > 100 µM. The TGI (ACHN) was 3.30 µM, the GI50 (ACHN) was 1.8 µM and the CC50 (ACHN) was 6.04 µM. It also gave a TGI (CAKI-1) of 5.09 µM, a GI50 (CAKI-1) of 2.28 µM and a CC50 (CAKI-1) of 16.7 µM. For the same compound, the GI50 (MDA-MB-231/ATCC) was 3.35 µM, the CC50 (MDA-MB-231/ATCC) was > 100 µM and the TGI (MDA-MB-231/ATCC) was > 100 µM. The TGI (BT-549) was 4.17 µM, the GI50 (BT-549) was 1.79 µM and the CC50 (BT-549) was > 100 µM.
